What all share (type): cell-based
The subject of experiment [1] is MEIS1 gene expression. The experiment is described as follows: Inhibition of MEIS1 gene expression in human tumor cells (qRT-PCR), OCI-AML3. Conditions: OCI-AML-3, OCI-AML3 (carrying NPM1c), 48 hours of incubation, relative MEIS1 gene expression vs GAPDH. The text has this:
Experimental Example 3: Evaluation of Inhibitory Activity of Compounds Against MEISI Gene Expression in Human Tumor Cells
The effect of test samples on MEIS1 gene expression in vitro cultured human leukemia cells MV-4-11 (carrying MLL-AF4), MOLM-13 (carrying MLL-AF9), and OCI-AML3 (carrying NPM1c) was studied.
• Human acute lymphoblastic leukemia cells MV-4-11, purchased from American Type Culture Collection, Catalog Number: CRL-9591; • Human acute myeloid leukemia cells MOLM-13, purchased from COBIOER BIOSCIENCES CO., LTD, Catalog Number: CBP60678; • Human acute myeloid leukemia cells OCI-AML3, purchased from COBIOER BIOSCIENCES CO., LTD, Catalog Number: CBP60817; • MEIS1 Primer/Probe, purchased from IDT, Catalog Number: 40831613; and • GAPDH Primer/Probe, purchased from IDT, Catalog Number: 22214836.
MV-4-11 cells were cultured in an IMDM medium containing 10% fetal bovine serum, or MOLM-13 and OCI-AML3 cells were cultured in an RPMI-1640 medium containing 20% fetal bovine serum, each supplemented with 100 U·mL^-1 penicillin and 100 µg·mL^-1 streptomycin. These cells were cultured at 37°C with 5% CO2. The suspensions of individual cell lines were prepared in their respective media and seeded into 48-well plates at a density of 100,000 cells/well. On the day of the experiment, a compound stock solution was diluted in a 6-fold gradient using DMSO. Each gradient-diluted stock solution was then further diluted 250-fold with a complete medium to prepare a series of working solutions at different concentrations. Next, 250 µL of working solution (containing the complete medium with a 2-fold serial concentration of the test compound or a positive control compound, or containing a control complete medium) was added to each well. After 48 hours of incubation, cells from the 48-well plate were collected into 1 mL centrifuge tubes, centrifuged at 1000 rpm for 5 minutes, and the complete medium was removed. Cells were washed twice with 1 mL PBS and centrifuged to remove PBS. Total RNA was extracted using the RNeasy Mini Kit (250) (QIAGEN, 74106). The threshold cycle (Ct) value for gene expression was determined using the HiScript II U+ One Step qRT-PCR Probe Kit (Vazyme) (Vazyme, Q223-01), with 3 replicates per sample. The prepared reaction mixture was placed in an ABI 7500 real-time PCR instrument, and the reaction proceeded following the procedures below. [formula]
Next, for the relative MEIS1 gene expression, the concentration (EC50) that inhibits 50% of relative MEIS1 gene expression was calculated using GraphPad Prism 8 software.
In general terms: Quantitative PCR measures a nucleic acid by following its amplification.

Experiment [2] concerns MEIS1 gene expression. The experiment is described as follows: Inhibition of MEIS1 gene expression in human tumor cells (qRT-PCR), MV-4-11. Conditions: MV4-11, MV-4-11 (carrying MLL-AF4), 48 hours of incubation, relative MEIS1 gene expression vs GAPDH, read-out: MV-4-11 MEISI EC50. The method, boiled down: (§1)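 MV-4-11 (MLL-AF4; IMDM, 10% FBS), MOLM-13 (MLL-AF9) and OCI-AML3 (NPM1c) (RPMI-1640, 20% FBS) seeded at 100,000 cells/well and treated 48 h with serially diluted compound. MEIS1 mRNA measured by one-step probe qRT-PCR from total RNA, triplicates, GAPDH primer/probe included; EC50 for inhibition of relative MEIS1 expression.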

The subject of the next experiment is KG-1a (wild-type MLL). The experiment is described as follows: Inhibition of proliferation of human tumor cells (Alamar Blue, 7 days), KG-1a control cell line. Conditions: 168 h, KG-1a cells (wild-type MLL, control cell line), method calls the value GI50. The method, boiled down: (§2)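 GI50 values reflect growth inhibition over 7 days, read by Alamar Blue. Seeding density was 4,000 cells/well except KG-1a (3,000 cells/well); each line grew in its own FBS-containing medium at 37°C.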
(In general: Resazurin is reduced to fluorescent resorufin, in cell work by metabolically active cells.)

For experiment [3], the system named is MEIS1 gene expression. The experiment is described as follows: Inhibition of MEIS1 gene expression in human tumor cells (qRT-PCR), MOLM-13. Conditions: MOLM-13 (carrying MLL-AF9), 48 hours of incubation, relative MEIS1 gene expression vs GAPDH. The method, boiled down: as §1
Experiment [4] deals with MOLM-13 (carrying MLL-AF9). The experiment is described as follows: Inhibition of proliferation of human tumor cells (Alamar Blue, 7 days), MOLM-13. Conditions: Homo sapiens, 168 h, MOLM-13 cells (carrying MLL-AF9), method calls the value GI50. In short, it runs like this: as §2
The subject of experiment [5] is MV-4-11 (carrying MLL-AF4). The experiment is described as follows: Inhibition of proliferation of human tumor cells (Alamar Blue, 7 days), MV-4-11. Conditions: Homo sapiens, MV4-11, 168 h, MV-4-11 cells (carrying MLL-AF4), method calls the value GI50. The method, boiled down:
as §2

A value given as a limit tells only on which side of the number the result lay.

This note sets out measurements from EP4782453A1 (Beyang Therapeutics Co., Ltd., priority 2023, dated 2025).

Broadly, the EC50 is the concentration that produces a half-maximal response. Usually IC50 stands for the midpoint of a concentration-inhibition curve.

Take `CC(=O)N1CCC([C@H](C)N2CC(c3cc(-c4ccc(F)cc4C(=O)N4CCOC[C@H]4C)c4c(F)nc(C)n4c3)C2)CC1` [Example 257-2, 1-{4-[(1S)-1-[3-(1-fluoro-8-{4-fluoro-2-[(3R)-3-methylmorpholin-4-carbonyl]phenyl}-3-methylimidazo[1,5-a]pyridin-6-yl)azacyclobutan-1-yl]ethyl]piperidin-1-yl}ethan-1-one]: the figures for the EC50 in the experiment on MEIS1 gene expression [1], in the experiment with MEIS1 gene expression [2] and in the experiment on MEIS1 gene expression [3] were 33 nM, 19 nM and 15 nM, respectively. The values for the IC50 (in the experiment on KG-1a (wild-type MLL); in experiment [4]; in experiment [5]) were 20000 nM, 31 nM and 17 nM, respectively.
With `CC(=O)N1CCN(CCC[C@H](C(C)C)N2CC(c3cc(-c4ccc(F)cc4C(=O)N4CCOC[C@H]4C)c4c(F)nc(C)n4c3)C2)CC1` [Example 265], the EC50 in the experiment on MEIS1 gene expression [1] is 70 nM; with MEIS1 gene expression [2], 54 nM; in the experiment on MEIS1 gene expression [3], 38 nM. Also, the values for the IC50 (in the experiment with KG-1a (wild-type MLL); in experiment [4]; in experiment [5]) were 20000 nM, 25 nM and 8.6 nM, respectively.
With `Cc1nc(F)c2c(-c3ccc(F)cc3C(=O)N3CCOC[C@H]3C)cc(C3CN([C@H](CCCN4CCN(C)CC4)C(C)C)C3)cn12` [Example 275, (3R)-4-[5-fluoro-2-(1-fluoro-3-methyl-6-{1-[(3R)-2-methyl-6-(4-methylpiperazin-1-yl)hexan-3-yl]azacyclobutan-3-yl}imidazo[1,5-a]pyridin-8-yl)benzoyl]-3-methylmorpholine], the EC50 in the experiment with MEIS1 gene expression [1] stood at 16 nM; in the experiment with MEIS1 gene expression [2] it was 8.3 nM; with MEIS1 gene expression [3], 7.7 nM. Also, the IC50 was found to be 20000 nM in the experiment with KG-1a (wild-type MLL), 9.4 nM in experiment [4] and 2.6 nM in experiment [5].
Consider `CCN1CCN(CCC[C@H](C(C)C)N2CC(c3cc(-c4ccc(F)cc4C(=O)N4CCOC[C@H]4C)c4c(F)nc(C)n4c3)C2)CC1` [Example 277], for which the EC50 in the experiment with MEIS1 gene expression [1] worked out at 12 nM; with MEIS1 gene expression [2] it was 6.5 nM; in the experiment on MEIS1 gene expression [3] it was 3.3 nM. Also, the concentration for half-maximal inhibition (IC50) with KG-1a (wild-type MLL) is 20000 nM; in experiment [4], 7.3 nM; in experiment [5] it was 1.6 nM.
Take `Cc1nc(F)c2c(-c3ccc(F)cc3C(=O)N3CCOC[C@H]3C)cc(C3CN([C@H](CCCN4CCC[C@H](O)C4)C(C)C)C3)cn12` [Example 293]: the EC50 was determined as 31 nM in the experiment on MEIS1 gene expression [1], 23 nM with MEIS1 gene expression [2] and 9.1 nM in the experiment with MEIS1 gene expression [3]. Further, the results for the IC50 (in the experiment on KG-1a (wild-type MLL); in experiment [4]; in experiment [5]) were 20000 nM, 24 nM and 2 nM, respectively.
For the compound `Cc1nc(F)c2c(-c3ccc(F)cc3C(=O)N3CCOC[C@H]3C)cc(C3CN([C@H](CCCN4C[C@H]5C[C@@H]4CO5)C(C)C)C3)cn12` [Example 353, (1R,4R)-5-[(4R)-4-[3-(1-fluoro-8-{4-fluoro-2-[(3R)-3-methylmorpholin-4-carbonyl]phenyl}-3-methylimidazo[1,5-a]pyridin-6-yl)azacyclobutan-1-yl]-5-methylhexyl]-2-oxa-5-azabicyclo[2.2.1]heptane], the EC50 with MEIS1 gene expression [1] was 21 nM; in the experiment on MEIS1 gene expression [2], 7.4 nM; in the experiment with MEIS1 gene expression [3], 2.4 nM. Further, the IC50 with KG-1a (wild-type MLL) is above 20000 nM; in experiment [4] it was 5.4 nM; in experiment [5], 4.1 nM.
In the case of `Cc1nc(F)c2c(-c3ccc(F)cc3C(=O)N3CCOC[C@H]3C)cc(C3CN([C@H](CN4CCN(C)CC4)C(C)C)C3)cn12` [Example 368-2, (3R)-4-[5-fluoro-2-(1-fluoro-3-methyl-6-{1-[(2S)-3-methyl-1-(4-methylpiperazin-1-yl)butan-2-yl]azacyclobutan-3-yl}imidazo[1,5-a]pyridin-8-yl)benzoyl]-3-methylmorpholine], the EC50 was found to be 17 nM with MEIS1 gene expression [1], 7.8 nM in the experiment with MEIS1 gene expression [2] and 9.1 nM with MEIS1 gene expression [3]. For the same compound, the IC50 with KG-1a (wild-type MLL) was 13000 nM; in experiment [4] it was 8.6 nM; in experiment [5], 5 nM.
Consider `CCN(C(=O)c1cc(F)ccc1-c1cc(C2CN([C@H](CCCN3C[C@H]4C[C@@H]3CO4)C(C)C)C2)cn2c(C)ncc12)C(C)C` [Example 379, N-ethyl-5-fluoro-2-(3-methyl-6-{1-[(3R)-2-methyl-6-[(1R,4R)-2-oxa-5-azabicyclo[2.2.1]heptan-5-yl]hexan-3-yl]azacyclobutan-3-yl}imidazo[1,5-a]pyridin-8-yl)-N-(isopropyl)benzamide], for which the results for the EC50 in the experiment with MEIS1 gene expression [1], in the experiment on MEIS1 gene expression [2] and in the experiment with MEIS1 gene expression [3] were 7.5 nM, 2.4 nM and 2 nM, respectively. Also, the IC50 in the experiment with KG-1a (wild-type MLL) is 11500 nM; in experiment [4], 2.5 nM; in experiment [5], 0.4 nM.
With `CCN(C(=O)c1cc(F)ccc1-c1cc(C2CN([C@H](CCCN3CCN(CCO)CC3)C(C)C)C2)cn2c(C)ncc12)C(C)C` [Example 398, N-ethyl-5-fluoro-2-(6-{1-[(3R)-6-[4-(2-hydroxyethyl)piperazin-1-yl]-2-methylhexan-3-yl]azacyclobutan-3-yl}-3-methylimidazo[1,5-a]pyridin-8-yl)-N-(isopropyl)benzamide], the EC50 in the experiment on MEIS1 gene expression [1] was determined as 13 nM; in the experiment with MEIS1 gene expression [2], 1.9 nM; in the experiment with MEIS1 gene expression [3] it was 2.6 nM. The IC50 was above 20000 nM with KG-1a (wild-type MLL), 4.3 nM in experiment [4] and 1.1 nM in experiment [5].
